Assay results: patent US9902713B2, “Neuroprotective compounds and use thereof” (BOARD OF REGENTS OF THE UNIVERSITY OF TEXAS SYSTEM, priority 2013, dated 2018)
“Also recorded” adds a separate entry of the source.

Legend:
[1] = test system: dopaminergic neurons within the substantia nigra; test: MPTP model of Parkinson's disease, TH+ neurons in SNc; format: in vivo, mice; conditions: IP, BID; for rescue of TH+ neurons: 10 mg/kg/d; for dose showing significant neuroprotective activity: 21 d after MPTP
Description: The mouse model of neurogenesis involves protecting newborn hippocampal neurons from premature apoptotic cell death. We also sought to determine if P7C3-S243 could protect mature neurons from cell death. […] In the brain, MPTP is oxidized to 1-methyl-4-phenylpyridinium cation (MPP^+), which is selectively transported into dopaminergic neurons within the SNc.^xh Within these cells, MPP^+ acts as a mitochondrial poison, generating a pathology that resembles that of Parkinsonian patients.^xvii Under our assay conditions, treatment with drug was initiated a full 24 hours after the final dose of MPTP. This dosing regime ensures that any effect of the P7C3 class of compounds can be attributed to neuroprotective activity rather than to simply blocking the uptake or metabolism of MPTP.^xviii Mice were administered drug twice daily for 21 days, after which time they were sacrificed by transcardial perfusion. Fixed brains were sectioned through the SNc at […] intervals. Every fourth section was stained with antibodies specific to tyrosine hydroxylase (TH). The TH enzyme catalyzes the oxidation of L-tyrosine to L-DOPA, which is the first step in the biosynthesis of dopamine. Accordingly, the number of TH+ cells provides a quantification of the neuroprotective efficacy of P7C3 derivatives following MPTP exposure. Importantly, all microscopic analyses were performed blinded to treatment group.
To test efficacy of P7C3-S243 in the MPTP model of Parkinson's disease, mice were administered MPTP (30 mg/k/d) for 5 days. On the 6th day, treatment with drug was initiated at the indicated dose (IP, BID, 21 d). In FIG. 3 upper panel, bars indicate number of tyrosine hydroxylase positive cells detected by immunohistochemical staining of the substantia nigra; error bars indicate SEM; asterisks indicate p<0.01 (*), p<0.001 (**) or p<0.0001 (***) relative to the Veh+MPTP group; number of mice in each group are shown within the bars. In FIG. 3 lower panel, representative immunohistochemical pictures of TH staining in the SNc are shown for 5 mg/kg/d treatment groups; bar=[…]. […] Moreover, the enantiomeric specificity observed in the MPTP model of Parkinson's disease mirrored that observed in the mouse model of neurogenesis. […] In this side-by-side experiment, P7C3-S243 appears at least as effective as P7C3-A20, a compound that has proven efficacy in several animal models of neurodegenerative disease.
MPTP Assay. As previously reported,^5 adult male C57BI/6 mice were individually housed for one week and then injected daily for 5 days with 30 mg/kg/day (i.p.) free base MPTP (Sigma). On day 6, 24 hours after receiving the fifth and final dose of MPTP, daily treatment with compound was initiated. Mice received twice daily doses of each compound (or vehicle) for the following 21 days, after which mice were sacrificed by transcardial perfusion with 4% paraformaldehyde. Brains were dissected, fixed overnight in 4% paraformaldehyde, and cryprotected in sucrose for freezing by standard procedures. […] Images were analyzed with a Nikon Eclipse 90i motorized research microscope with Plan Apo lenses coupled with Metamorph Image Acquisition software (Nikon). TH+ neurons were counted with Image J software (NIH) in every section by 2 blinded investigators and results were averaged and multiplied by the sectioning interval to determine the total number of TH+ neurons per SNc.

blast-injured mice = test: Barnes maze after blast-mediated TBI; format: in vivo; conditions: for time in escape quadrant, probe test: treatment immediately after blast-injury, 10 mg/kg/d IP, FIG. 21A
Description: Barnes maze: The Barnes maze evaluates cognition based on time spent in the escape area. There are 20 holes around the periphery of the round tabletop, one of which contains an escape chamber (shown in red), into which the animal is motivated to seek shelter after being placed on the open tabletop. The escape area is defined as 5 cm around the hole, and time spent in the escape area during the probe test is used to measure hippocampal-dependent memory, which is dependent on visual cue around the table.
To test the neuroprotective efficacy of P7C3-A20 and P7C3-S243, we employed a model of blast-induced TBI in which the blast wave is propagated following rupture of a mylar membrane (Mohan et al., 2013). Briefly, anesthetized mice are placed in an enclosed blast chamber constructed from an air tank partitioned into two sides. A sealed mylar membrane covers a small port between the two halves of the tank. When the pressure is increased in the side without the mouse, the membrane ruptures at ≈22 kilopascal (kPa), generating a blast wave that travels through the mouse's head. The head of the mouse is untethered and located in a padded holder, while the body is shielded from the blast by a metal tube. In all cases, the left side of the head faces the blast wave. As previously reported (Mohan et al., 2013), the intensity of the blast wave in our system is 149.8±2.09 kPa, and the duration of the total pressure (Blast wave+wind gust) is ≈10-15 milliseconds.
The Barnes maze consists of a circular table with holes equally spaced around the perimeter. One of these holes contains an escape cup, such that the mouse can enter the hole and hide in the cup to avoid exposure on the table. Testing in the Barnes maze was initiated 7 days after blast-injury. To begin, mice underwent 4 days of training, during which time they were allowed to find and enter the escape hole, and rest in the protective cup. By the 4th day of training, mice typically learn how to rapidly locate the escape hole, based on visual cues permanently positioned around the table throughout training. After 4 days of training, the cup is removed and the ability of the mouse to remember where the cup was previously located is assessed in the ‘probe test.’ Memory is reflected by measuring the amount of time the mouse spends in the area around where the cup was previously located.
Blast-Mediated Traumatic Brain Injury. Mice were anesthetized with ketamine/xylazine ([…] respectively) and placed in an enclosed blast chamber (50 cm long and 33 cm wide) constructed from an air tank partitioned into two sides. One side was pressurized with a 13 cm opening between the partitions, covered with a Mylar membrane. The unpressurized partition contained a restraint 10 cm from the Mylar membrane into which the mouse was placed. The head was freely moving while a metal tube shielded the body. Compressed air was forced in to the pressurized partition until the Mylar membrane bursts at 22 kPa. The blast wave impacts the test animal inside a foam-lined restraint to reduce blunt impact trauma of the head against the metal tube. The left side of the head was closest the origin of the blast wave. Sham-injured animals were anesthetized in the same way and not subjected to the blast.
Barnes Maze. The Barnes maze test assesses spatial learning and memory. It was conducted on a gray circular surface 91 cm in diameter with 20 holes 5 cm in diameter around the perimeter raised to a height of 90 cm (Stoelting Co.). The surface was brightly lit and open in order to motivate the test animal to learn the location of a dark escape chamber recessed under one of the 20 holes. The maze was placed inside a black circular curtain with four different visual cues (with different shapes and colors) for orientation to the permanent location of the escape chamber. Four days of training comprised of four trials per day were conducted for each animal. […]

[2] = 3 and 30 mg/kg/d from 24 hours after injury
[3] = 3 and 30 mg/kg/d from 36 hours after injury
[4] = from 48 hours after injury, any dose
[5] = single enantiomers, 3 mg/kg/d IP

`COc1cccc(NCC(F)Cn2c3ccc(Br)cc3c3cc(Br)ccc32)n1` (racemic) [P7C3-S243, N-(3-(3,6-dibromo-9H-carbazol-9-yl)-2-fluoropropyl)-6-methoxypyridin-2-amine] was tested, and the “rescue of TH+ neurons” value ([1]; 21 d) was “over 85%”, the “dose showing significant neuroprotective activity” value [1] was 1 mg/kg/day and the “learning (percent latency to escape)” value (blast-injured mice; 0.3 mg/kg/day from 24 hours after injury) was “learned significantly worse than sham-injury mice”. The “learning (percent latency to escape)” value (blast-injured mice; 30 mg/kg/day from 48 hours after injury) was “restored normal learning”, the “learning (percent latency to escape)” value (blast-injured mice; 1, 3, 10 or 30 mg/kg/day from 24 hours after injury) was “learned the task as well as sham-injury mice” and the “percent quadrant time, probe test” value (blast-injured mice; [2]) was “preserved a normal percent quadrant time”. The “percent target entry, probe test” value (blast-injured mice; [2]) was “preserved a normal percent target entry”, the “percent quadrant time, probe test” value (blast-injured mice; [3]) was “only the higher dose was significantly protective” and the “percent target entry, probe test” value (blast-injured mice; [3]) was “only the higher dose was significantly protective”. The “learning (percent latency to escape)” value (blast-injured mice; 3 and 30 mg/kg/day from 36 hours after injury) was “improved learning”, the “percent target entry, probe test” value (blast-injured mice; IP 11 days, dose series, FIG. 22A) was “dose-dependently preserved performance” and the “percent quadrant time, probe test” value (blast-injured mice; IP 11 days, dose series, FIG. 23A) was “dose-dependently preserved performance”. For the same molecule, the “memory in probe test” value (blast-injured mice; IP from 24 hours after injury, 0.3 mg/kg/day) was “did not preserve memory”, the “percent time in escape area, probe test” value (blast-injured mice; IP from 24 hours after injury, 1 mg/kg/day) was “partial, though not statistically significant, protection” and the “percent time in escape area, probe test” value (blast-injured mice; IP from 24 hours after injury, 3, 10 and 30 mg/kg/day) was “protected; also recorded: complete protection”. The “memory in probe test” value (blast-injured mice; IP from 36 hours after injury, 3 mg/kg/day) was “did not improve memory”, the “percent time in escape area, probe test” value (blast-injured mice; IP from 36 hours after injury, 30 mg/kg/d) was “partially efficacious” and the “percent time in escape area, probe test” value (blast-injured mice; IP from 48 hours after injury, any dose (3 or 30 mg/kg/d)) was “no protective efficacy”. The “percent quadrant time, probe test” value (blast-injured mice; [4]) was “no protective efficacy”, the “percent target entry, probe test” value (blast-injured mice; [4]) was “no protective efficacy” and the “time in escape quadrant, probe test” value (blast-injured mice) was “restored the time spent in the escape quadrant to normal levels”.

`COc1cccc(NCC(F)Cn2c3ccc(Br)cc3c3cc(Br)ccc32)n1` (single isomer, unassigned; (-)) [(−)-P7C3-S243, (−)-N-(3-(3,6-dibromo-9H-carbazol-9-yl)-2-fluoropropyl)-6-methoxypyridin-2-amine] was tested, and the “neuroprotection by single enantiomers” value ([1]; 21 d, FIG. 3) was “strongly protective”, the “memory in probe test” value (blast-injured mice; oral from 24 hours after injury, 3, 10 and 30 mg/kg/day) was “preserved memory” and the “learning (percent latency to escape)” value (blast-injured mice; oral, 1 mg/kg/day) was “restored normal learning”. The “memory in probe test” value (blast-injured mice; oral, 1 mg/kg/day) was “did not preserve memory”, the “learning (percent latency to escape)” value (blast-injured mice; oral, 1, 3, 10 and 30 mg/kg/day) was “preserved of normal percent latency to escape” and the “percent quadrant time, probe test” value (blast-injured mice; oral, 3, 10 and 30 mg/kg/day) was “potent preservation”. The “percent target entry, probe test” value (blast-injured mice; oral, 3, 10 and 30 mg/kg/day) was “potent preservation”, the “percent quadrant time, probe test” value (blast-injured mice; [5]) was “completely preserved normal performance” and the “percent target entry, probe test” value (blast-injured mice; [5]) was “preserved normal performance”. For the same molecule, the “learning (percent latency to escape)” value (blast-injured mice; single enantiomers, 3 mg/kg/day from 24 hours after injury) was “learned the task as well as sham-injury mice”, the “percent time in escape area, probe test” value (blast-injured mice; single enantiomers, IP from 24 hours after injury, 3 mg/kg/day) was “complete protection” and the “percent time in escape area, probe test” value (blast-injured mice; single enantiomers, IP from 24 hours after injury, 3 mg/kg/day, listed as A, 3 mg/kg/day) was “protective”. For the same molecule, the “time in escape quadrant, probe test” value (blast-injured mice) was “nonsignificant trend”.

With `COc1cccc(NCC(F)Cn2c3ccc(Br)cc3c3cc(Br)ccc32)c1` (stereo not shown) [P7C3-A20, N-(3-(3,6-dibromo-9H-carbazol-9-yl)-2-fluoropropyl)-3-methoxyaniline] the “rescue of TH+ neurons” value ([1]; 21 d) was “around 75%”, the “dose showing significant neuroprotective activity” value [1] was 5 mg/kg/day and the “time in escape quadrant, probe test” value (blast-injured mice) was “restored the time spent in the escape quadrant to normal levels”.
